From patent US20190367516A1 (Bayer Pharma Aktiengesellschaft, priority 2015, published 2019)

How the values were obtained:
human M2 receptor [1] = biological target: T1, human M2 receptor (Homo sapiens, UniProt P08172); assay type: cell-based; settings: shift in the acetylcholine dose-response curve (Allosteric EC50 shift, GraphPad PRISM); α >1 = positive cooperativity
T1 sequence (P08172 1-466): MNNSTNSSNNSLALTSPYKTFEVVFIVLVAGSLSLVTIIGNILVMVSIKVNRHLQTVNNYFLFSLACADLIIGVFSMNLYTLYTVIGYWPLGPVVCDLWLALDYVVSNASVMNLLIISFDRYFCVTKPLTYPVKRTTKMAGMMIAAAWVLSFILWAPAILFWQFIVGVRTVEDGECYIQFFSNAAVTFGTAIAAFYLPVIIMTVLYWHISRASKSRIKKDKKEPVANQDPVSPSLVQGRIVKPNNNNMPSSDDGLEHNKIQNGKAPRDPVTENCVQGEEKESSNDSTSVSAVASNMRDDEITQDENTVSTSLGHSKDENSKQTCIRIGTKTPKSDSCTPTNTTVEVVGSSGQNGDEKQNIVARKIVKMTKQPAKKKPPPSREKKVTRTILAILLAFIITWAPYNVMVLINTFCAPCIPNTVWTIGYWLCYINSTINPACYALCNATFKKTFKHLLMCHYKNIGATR

human M2 receptor [2] = biological target: T1, human M2 receptor; settings: for EC50: Receptor activity EC50, M2-GIRK1/4 activation test, acetylcholine at EC20, allosteric potency, in some cases mean values from two or more determinations

Cooperativity (alpha factor) (human M2 receptor [1])	EC50 (human M2 receptor [2])	SMILES	Emax (human M2 receptor [2]; read-out: Efficiency)
7	0.082 µM	CN(C)c1ccc2c(=O)c(C(=O)Nc3ccccc3C(F)(F)F)cn(-c3ccc(F)cc3F)c2n1 [Example 57, 1-(2,4-Difluorophenyl)-7-(dimethylamino)-4-oxo-N-[2-(trifluoromethyl)phenyl]-1,4-dihydro-1,8-naphthyridine-3-carboxamide]	
11	0.094 µM	CN(C)c1ccc2c(=O)c(C(=O)NCc3ccccc3C(F)(F)F)cn(-c3ccc(F)cc3F)c2n1 [Example 59, 1-(2,4-Difluorophenyl)-7-(dimethylamino)-4-oxo-N-[2-(trifluoromethyl)benzyl]-1,4-dihydro-1,8-naphthyridine-3-carboxamide]	
8	0.155 µM	CN(C)c1ccc2c(=O)c(C(=O)NCc3c(F)cccc3C(F)(F)F)cn(-c3ccc(F)cc3F)c2n1 [Example 60, 1-(2,4-Difluorophenyl)-7-(dimethylamino)-N-[2-fluoro-6-(trifluoromethyl)benzyl]-4-oxo-1,4-dihydro-1,8-naphthyridine-3-carboxamide]	
28	0.012 µM	CC[C@H](NC(=O)c1cn(-c2ccc(F)cc2F)c2nc(N3CC[C@H](F)C3)ccc2c1=O)C(F)(F)F [Example 64, 1-(2,4-Difluorophenyl)-7-[(3S)-3-fluoropyrrolidin-1-yl]-4-oxo-N-[(2S)-1,1,1-trifluorobutan-2-yl]-1,4-dihydro-1,8-naphthyridine-3-carboxamide]	
36	0.007 µM	CC(C)CC(NC(=O)c1cn(-c2ccc(F)cc2F)c2nc(N3CC[C@H](F)C3)ccc2c1=O)C(F)(F)F (stereo partly drawn) [Example 65, 1-(2,4-Difluorophenyl)-7-[(3S)-3-fluoropyrrolidin-1-yl]-4-oxo-N-[1,1,1-trifluoro-4-methylpentan-2-yl]-1,4-dihydro-1,8-naphthyridine-3-carboxamide]	
29	0.076 µM	O=C(NC(C(F)(F)F)C(F)(F)F)c1cn(-c2ccc(F)cc2F)c2nc(N3CC[C@H](F)C3)ccc2c1=O [Example 70, 1-(2,4-Difluorophenyl)-7-[(3S)-3-fluoropyrrolidin-1-yl]-N-(1,1,1,3,3,3-hexafluoropropan-2-yl)-4-oxo-1,4-dihydro-1,8-naphthyridine-3-carboxamide]	

Further lines, the compound ahead of its results:

SMILES	Cooperativity (alpha factor) (human M2 receptor [1])	EC50 (human M2 receptor [2])	Emax (human M2 receptor [2]; read-out: Efficiency)
O=C(NC12CC3CC(CC(C3)C1)C2)c1cn(-c2ccc(F)cc2F)c2nc(N3CCC4(C3)CC4(F)F)ccc2c1=O (stereo not shown) [Example 13, 7-(1,1-Difluoro-5-azaspiro[2.4]hept-5-yl)-1-(2,4-difluorophenyl)-4-oxo-N-(tricyclo[3.3.1.1^3,7]dec-1-yl)-1,4-dihydro-1,8-naphthyridine-3-carboxamide]	6	0.071 µM	
O=C(NC12CC3CC(CC(C3)C1)C2)c1cn(-c2ccc(F)cc2F)c2nc(N3CCCC[C@H]3CO)ccc2c1=O [Example 15, 1-(2,4-Difluorophenyl)-7-[(2S)-2-(hydroxymethyl)piperidin-1-yl]-4-oxo-N-(tricyclo[3.3.1.1^3,7]dec-1-yl)-1,4-dihydro-1,8-naphthyridine-3-carboxamide]	8	0.085 µM	
CO[C@@H]1CCN(c2ccc3c(=O)c(C(=O)NC45CCC(C)(CC4)CC5)cn(-c4ccc(F)cc4F)c3n2)C1 [Example 19, 1-(2,4-Difluorophenyl)-7-[(3R)-3-methoxypyrrolidin-1-yl]-N-(4-methylbicyclo[2.2.2]oct-1-yl)-4-oxo-1,4-dihydro-1,8-naphthyridine-3-carboxamide]	12	0.058 µM	
CC12CCC(NC(=O)c3cn(-c4ccc(F)cc4F)c4nc(N5CC[C@@H](O)C5)ccc4c3=O)(CC1)CC2 [Example 20, 1-(2,4-Difluorophenyl)-7-[(3R)-3-hydroxypyrrolidin-1-yl]-N-(4-methylbicyclo[2.2.2]oct-1-yl)-4-oxo-1,4-dihydro-1,8-naphthyridine-3-carboxamide]	34	0.042 µM	
CC[C@@H](NC(=O)c1cn(-c2ccc(F)cc2F)c2nc(NCCF)ccc2c1=O)C(F)(F)F [Example 27, 1-(2,4-Difluorophenyl)-7-[(2-fluoroethyl)amino]-4-oxo-N-[(2R)-1,1,1-trifluorobutan-2-yl]-1,4-dihydro-1,8-naphthyridine-3-carboxamide]	20	0.089 µM	
CC[C@@H](NC(=O)c1cn(-c2ccc(F)cc2F)c2nc(N3C[C@@H](F)C[C@H]3C)ccc2c1=O)C(F)(F)F [Example 31, 1-(2,4-Difluorophenyl)-7-[(2R,4S)-4-fluoro-2-methylpyrrolidin-1-yl]-4-oxo-N-[(2R)-1,1,1-trifluorobutan-2-yl]-1,4-dihydro-1,8-naphthyridine-3-carboxamide]	13	0.04 µM	
CC[C@@H](NC(=O)c1cn(-c2ccc(F)cc2F)c2nc(N3CC[C@@H](F)[C@H](O)C3)ccc2c1=O)C(F)(F)F [Example 33, 1-(2,4-Difluorophenyl)-7-[(3R,4R)-4-fluoro-3-hydroxypiperidin-1-yl]-4-oxo-N-[(2R)-1,1,1-trifluorobutan-2-yl]-1,4-dihydro-1,8-naphthyridine-3-carboxamide]	20	0.091 µM	
CC[C@@H](NC(=O)c1cn(-c2ccc(F)cc2F)c2nc(N3CCC(O)(O)C(F)(F)C3)ccc2c1=O)C(F)(F)F [Example 35, 7-(3,3-Difluoro-4,4-dihydroxypiperidin-1-yl)-1-(2,4-difluorophenyl)-4-oxo-N-[(2R)-1,1,1-trifluorobutran-2-yl]-1,4-dihydro-1,8-naphthyridine-3-carboxamide]	24	0.062 µM	
CN(C)c1ccc2c(=O)c(C(=O)NC34CC5CC(CC(C5)C3)C4)cn(-c3ccc(F)cc3F)c2n1 [Example 36, 1-(2,4-Difluorophenyl)-7-(dimethylamino)-4-oxo-N-(tricyclo[3.3.1.1^3,7]dec-1-yl)-1,4-dihydro-1,8-naphthyridine-3-carboxamide]	16	0.019 µM	96.1%
CN(C)c1ccc2c(=O)c(C(=O)NC34CC5CC(F)(CC(F)(C5)C3)C4)cn(-c3ccc(F)cc3F)c2n1 [Example 38, 1-(2,4-Difluorophenyl)-N-(3,5-difluorotricyclo[3.3.1.1^3,7]dec-1-yl)-7-(dimethylamino)-4-oxo-1,4-dihydro-1,8-naphthyridine-3-carboxamide]	14	0.041 µM	
CN(C)c1ccc2c(=O)c(C(=O)NC34CC5CC(C3)C(F)(F)C(C5)C4)cn(-c3ccc(F)cc3F)c2n1 [Example 39, 1-(2,4-Difluorophenyl)-N-(4,4-difluorotricyclo[3.3.1.1^3,7]dec-1-yl)-7-(dimethylamino)-4-oxo-1,4-dihydro-1,8-naphthyridine-3-carboxamide]	14	0.088 µM	
C[C@H](NC(=O)c1cn(-c2ccc(F)cc2F)c2nc(N(C)C)ccc2c1=O)C(F)(F)F [Example 44, 1-(2,4-Difluorophenyl)-7-(dimethylamino)-4-oxo-N-[(2S)-1,1,1-trifluoropropan-2-yl]-1,4-dihydro-1,8-naphthyridine-3-carboxamide]	12	0.111 µM	
